Test results published in patent US20050180944A1, “In situ remediation of waste in farm animal bedding substrates” (priority 2004, published 2005).

What was measured:
pig waste [1] = assay: Seven-day test: bioremediation/degradation of pig waste suspended in water with fatty acid additives; settings: 0.1 g fatty acid (0.5 g coated nutrient) per bottle of aqueous pig waste mixture, 2000 ppm ammonium hydroxide, 25 degrees Celsius
Description: A test was performed to determine the relative performance of various additives on the bioremediation or degradation of wastes suspended in water. Measurements of the “biological oxygen demand” (BOD) and “total suspended solids” (TSS) were taken as representative of the progress of the microbial growth and effectiveness of the degradation brought about by the microbes. Approximately five pounds of pig waste was collected from a feedlot and diluted in five gallons of deionized water. The mixture was allowed to sit for 24 hours to insure that the waste formed a uniform mixture. Five hundred milliliters (500 ml) of the aqueous waste mixture was added to each of 13 two-liter glass bottles that were closed with Teflon lined caps. Ammonium hydroxide was added to each container for a final concentration of 2000 ppm. The samples were diluted with water 2:1 and filtered to remove large particulate matter. Various fatty acids and combinations of fatty acids were added to each bottle and the bottles were placed in a tumbler at 25 degrees Celsius. Seven of the bottles were used in a seven-day test and six of the bottles were used in a twelve-day test. Standard EPA test methods were used for all test measurements.

pig waste [2] = assay: BOD and TSS of pig waste samples treated with fatty acids and combinations (test duration not given); set-up: BOD reduction / TSS reduction: concentration or dose not given beside the values; settings: treated pig waste sample
Description: A test was performed to determine the relative performance of various additives on the bioremediation or degradation of wastes suspended in water. Measurements of the “biological oxygen demand” (BOD) and “total suspended solids” (TSS) were taken as representative of the progress of the microbial growth and effectiveness of the degradation brought about by the microbes.
Approximately five pounds of pig waste was collected from a feedlot and diluted in five gallons of deionized water. The mixture was allowed to sit for 24 hours to insure that the waste formed a uniform mixture. Five hundred milliliters (500 ml) of the aqueous waste mixture was added to each of 13 two-liter glass bottles that were closed with Teflon lined caps. Ammonium hydroxide was added to each container for a final concentration of 2000 ppm.
The samples were diluted with water 2:1 and filtered to remove large particulate matter. Various fatty acids and combinations of fatty acids were added to each bottle and the bottles were placed in a tumbler at 25 degrees Celsius. Seven of the bottles were used in a seven-day test and six of the bottles were used in a twelve-day test. Standard EPA test methods were used for all test measurements.
BOD (biological oxygen demand) and TSS (total suspended solids) were measured on each sample.

| Structure (SMILES) | TSS (total suspended solids) (pig waste [1]) | BOD levels (pig waste [2]) | BOD reduction (pig waste [2]) | TSS levels (pig waste [2]) | TSS reduction (pig waste [2]) |
| --- | --- | --- | --- | --- | --- |
| CCCCCCCCCCCC(=O)O [Lauric] | 16,040 ppm | – | – | – | – |
| CCCCC/C=C\C/C=C\CCCCCCCC(=O)O [Linoleic, linoleic acid] | 15,780 ppm | 6102 ppm | 12.2% | 439 ppm | 13.3% |
| CCCCCCCC/C=C\CCCCCCCC(=O)O [Oleic, oleic acid] | 15,600 ppm | 6050 ppm | 13.0% | 407 ppm | 19.6% |
| CCCCCCCCCCCCCCCCCC(=O)O [Strearic, stearic acid] | 16,080 ppm | 6660 ppm | 9.5% | 455 ppm | 10.0% |
